{"source": "PubChem BioAssay (NCI)", "experiment_in_all_cases": "DTP human tumour cell line panel, 48 h", "key": {"[1]": {"system": "CCRF-CEM leukemia"}, "[2]": {"system": "OVCAR-4 ovarian"}, "[3]": {"system": "MALME-3M melanoma"}, "[4]": {"system": "UO-31 renal"}, "[5]": {"system": "SR leukemia"}, "[6]": {"system": "NCI-H226 lung"}, "[7]": {"system": "NCI-H460 lung"}, "[8]": {"system": "SK-MEL-5 melanoma"}, "[9]": {"system": "HOP-92 NSCLC"}, "[10]": {"system": "SF-539 CNS"}, "[11]": {"system": "OVCAR-8 ovarian"}, "[12]": {"system": "MDA-MB-231 breast"}, "[13]": {"system": "SF-268 CNS"}, "[14]": {"system": "A498 renal"}, "[15]": {"system": "HS 578T breast"}, "[16]": {"system": "786-0 renal"}, "[17]": {"system": "MOLT-4 leukemia"}, "[18]": {"system": "SK-MEL-28 melanoma"}, "[19]": {"system": "TK-10 renal"}, "[20]": {"system": "HCC-2998 colon"}, "[21]": {"system": "SK-MEL-2 melanoma"}, "[22]": {"system": "OVCAR-5 ovarian"}, "[23]": {"system": "K-562 leukemia"}, "[24]": {"system": "A549 NSCLC"}, "[25]": {"system": "SNB-19 CNS"}, "[26]": {"system": "M14 melanoma"}, "[27]": {"system": "RPMI-8226 leukemia"}}, "note": "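These data come from cells grown in 96-well plates and exposed to compound for 48 hours at five concentrations. Abbreviation: GI50, concentration required for 50% inhibition of growth. TGI: concentration producing complete growth inhibition.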", "data": [{"molecule": "NC(N)=Nc1ccc(Oc2cccc(NC(N)=Nc3ccc(Cl)c(C(F)(F)F)c3)c2)cn1", "values": [{"measurement": "GI50", "setting": "[1]", "value": 2.27, "unit": "µM"}, {"measurement": "TGI", "setting": "[1]", "value": 10.3, "unit": "µM"}, {"measurement": "GI50", "setting": "[2]", "value": 2.53, "unit": "µM"}, {"measurement": "TGI", "setting": "[2]", "value": 9.36, "unit": "µM"}, {"measurement": "GI50", "setting": "[3]", "value": 2.3, "unit": "µM"}, {"measurement": "TGI", "setting": "[3]", "value": 7.91, "unit": "µM"}, {"measurement": "GI50", "setting": "[4]", "value": 12.9, "unit": "µM"}, {"measurement": "TGI", "setting": "[4]", "value": 29.6, "unit": "µM"}, {"measurement": "GI50", "setting": "[5]", "value": 1.42, "unit": "µM"}, {"measurement": "TGI", "setting": "[5]", "value": 3.76, "unit": "µM"}, {"measurement": "GI50", "setting": "[6]", "value": 2.18, "unit": "µM"}, {"measurement": "TGI", "setting": "[6]", "value": 6.25, "unit": "µM"}, {"measurement": "GI50", "setting": "[7]", "value": 1.48, "unit": "µM"}, {"measurement": "TGI", "setting": "[7]", "value": 3.6, "unit": "µM"}, {"measurement": "GI50", "setting": "[8]", "value": 2.53, "unit": "µM"}, {"measurement": "TGI", "setting": "[8]", "value": 6.94, "unit": "µM"}, {"measurement": "GI50", "setting": "[9]", "value": 1.16, "unit": "µM"}, {"measurement": "TGI", "setting": "[9]", "value": 3.43, "unit": "µM"}, {"measurement": "GI50", "setting": "[10]", "value": 1.54, "unit": "µM"}, {"measurement": "TGI", "setting": "[10]", "value": 3.01, "unit": "µM"}, {"measurement": "GI50", "setting": "[11]", "value": 3.3, "unit": "µM"}, {"measurement": "TGI", "setting": "[11]", "value": 18.7, "unit": "µM"}, {"measurement": "GI50", "setting": "[12]", "value": 1.99, "unit": "µM"}, {"measurement": "TGI", "setting": "[12]", "value": 5.23, "unit": "µM"}, {"measurement": "GI50", "setting": "[13]", "value": 1.09, "unit": "µM"}, {"measurement": "TGI", "setting": "[13]", "value": 2.54, "unit": "µM"}, {"measurement": "GI50", "setting": "[14]", "value": 1.69, "unit": "µM"}, {"measurement": "TGI", "setting": "[14]", "value": 6.24, "unit": "µM"}, {"measurement": "GI50", "setting": "[15]", "value": 1.78, "unit": "µM"}, {"measurement": "TGI", "setting": "[15]", "value": 4.63, "unit": "µM"}, {"measurement": "GI50", "setting": "[16]", "value": 4.83, "unit": "µM"}, {"measurement": "TGI", "setting": "[16]", "value": 24.8, "unit": "µM"}, {"measurement": "GI50", "setting": "[17]", "value": 2.16, "unit": "µM"}, {"measurement": "TGI", "setting": "[17]", "value": 8.08, "unit": "µM"}, {"measurement": "GI50", "setting": "[18]", "value": 2.04, "unit": "µM"}, {"measurement": "TGI", "setting": "[18]", "value": 5.92, "unit": "µM"}, {"measurement": "GI50", "setting": "[19]", "value": 4.35, "unit": "µM"}, {"measurement": "TGI", "setting": "[19]", "value": 21.7, "unit": "µM"}, {"measurement": "GI50", "setting": "[20]", "value": 1.67, "unit": "µM"}, {"measurement": "TGI", "setting": "[20]", "value": 3.37, "unit": "µM"}, {"measurement": "GI50", "setting": "[21]", "value": 1.78, "unit": "µM"}, {"measurement": "TGI", "setting": "[21]", "value": 3.37, "unit": "µM"}, {"measurement": "GI50", "setting": "[22]", "value": 1.89, "unit": "µM"}, {"measurement": "TGI", "setting": "[22]", "value": 5.73, "unit": "µM"}, {"measurement": "GI50", "setting": "[23]", "value": 1.51, "unit": "µM"}, {"measurement": "TGI", "setting": "[23]", "value": 10.6, "unit": "µM"}, {"measurement": "GI50", "setting": "[24]", "value": 1.91, "unit": "µM"}, {"measurement": "TGI", "setting": "[24]", "value": 17.4, "unit": "µM"}, {"measurement": "GI50", "setting": "[25]", "value": 1.28, "unit": "µM"}, {"measurement": "TGI", "setting": "[25]", "value": 2.68, "unit": "µM"}, {"measurement": "GI50", "setting": "[26]", "value": 3.22, "unit": "µM"}, {"measurement": "TGI", "setting": "[26]", "value": 19.3, "unit": "µM"}, {"measurement": "GI50", "setting": "[27]", "value": 1.56, "unit": "µM"}, {"measurement": "TGI", "setting": "[27]", "value": 4, "unit": "µM"}]}]}
